Results reported in patent publication US20250092066A1, “SUBSTITUTED BICYCLIC HETEROCYCLES AS MALT-1 INHIBITORS” (AURIGENE ONCOLOGY LIMITED, priority 2022, published 2025).

Molecular target: MALT-1 (Isoform1) (Homo sapiens (Human), UniProt Q9UDY8)
Assay: Biochemical fluorescent assay of MALT-1 (Isoform1) enzyme inhibition
Conditions: recombinant MALT-1 (Isoform1); for inhibition at 1 µM / Percent Inhibition (@ 1 μM): compound at 1 μM; for inhibition at 1 µM: read-out: Percent Inhibition (@ 1 μM); for IC50: 50 μM AC-LRSR-MAC substrate, 240 min
Protocol: The potency of compounds to inhibit MALT-1 (Isoform1) enzyme was tested in a Fluorescent assay using recombinant MALT-1 (Isoform1, aa-840) generated in-house. The assay buffer was 50 mM HEPES (pH 7.5), 100 mM NaCl, 10 mM DTT, 1 mM EDTA, 0.9 M sodium citrate, 0.01% CHAPS. 1.5 nM of MALT-1 enzyme was incubated with various concentrations of test compounds ([…]) (1% DMSO) in the presence of buffer for 30 minutes at 30° C. The protease reaction was initiated by adding 50 μM of AC-LRSR-MAC (Peptide International, USA) substrate and incubated for 240 min. After 240 min incubation, fluorescence emission of the samples at 460 nm was measured at an excitation of 355 nm. The percent inhibition was calculated using the following formula: […]. IC50 values were determined by fitting the dose-response data to sigmoidal curve fitting equation using Graph pad prism software VS.

MALT-1 (Isoform1), sequence (Q9UDY8 whole entry, canonical isoform): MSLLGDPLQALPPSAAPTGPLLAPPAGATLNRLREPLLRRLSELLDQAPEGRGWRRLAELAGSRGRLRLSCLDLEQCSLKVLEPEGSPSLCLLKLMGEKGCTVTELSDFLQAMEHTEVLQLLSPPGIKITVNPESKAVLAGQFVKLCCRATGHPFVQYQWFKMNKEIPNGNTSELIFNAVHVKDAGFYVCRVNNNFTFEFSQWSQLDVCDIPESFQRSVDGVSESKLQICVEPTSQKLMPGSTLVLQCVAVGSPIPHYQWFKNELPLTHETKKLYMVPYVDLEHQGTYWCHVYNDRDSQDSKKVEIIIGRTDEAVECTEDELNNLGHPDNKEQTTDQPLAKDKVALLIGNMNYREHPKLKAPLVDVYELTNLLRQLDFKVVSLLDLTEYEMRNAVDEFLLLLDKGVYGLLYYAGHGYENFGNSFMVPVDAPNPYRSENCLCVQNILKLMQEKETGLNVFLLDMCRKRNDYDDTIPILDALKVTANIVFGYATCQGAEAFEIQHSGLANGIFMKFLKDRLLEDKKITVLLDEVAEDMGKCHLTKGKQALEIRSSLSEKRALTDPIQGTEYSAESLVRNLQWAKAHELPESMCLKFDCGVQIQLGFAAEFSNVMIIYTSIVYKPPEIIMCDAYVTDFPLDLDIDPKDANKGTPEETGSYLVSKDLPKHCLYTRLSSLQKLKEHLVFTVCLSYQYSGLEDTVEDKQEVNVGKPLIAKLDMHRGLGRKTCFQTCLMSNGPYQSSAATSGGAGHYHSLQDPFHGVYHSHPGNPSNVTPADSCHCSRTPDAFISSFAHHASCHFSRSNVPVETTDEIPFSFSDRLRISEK

| SMILES | inhibition at 1 µM [%] | IC50 [nM] | Percent Inhibition (@ 1 μM) [%] |
| --- | --- | --- | --- |
| COC(C)c1c(NC(=O)Nc2cc(Cl)c3ncnn3c2)cnc(C)c1Br (racemic) [Example 34, 1-(5-bromo-4-(1-methoxyethyl)-6-methylpyridin-3-yl)-3-(8-chloro-[1,2,4]triazolo[1,5-a]pyridin-6-yl)urea] | 71 | > 250 |  |
| COC(C)c1c(NC(=O)Nc2cc(Cl)c3nc(C)nn3c2)cnc(C)c1Br (racemic) [Example 35, 1-(5-bromo-4-(1-methoxyethyl)-6-methylpyridin-3-yl)-3-(8-chloro-2-methyl-[1,2,4]triazolo[1,5-a]pyridin-6-yl)urea] | 72 | > 250 |  |
| COC(C)c1c(NC(=O)Nc2cc(Cl)c3ncnn3c2)cnc(C)c1Br (single isomer, unassigned) [Example 34a, 1-(5-bromo-4-(1-methoxyethyl)-6-methylpyridin-3-yl)-3-(8-chloro-[1,2,4]triazolo[1,5-a]pyridin-6-yl)urea] | 79 | 51 to 250 |  |
| COC(C)c1c(NC(=O)Nc2cc(Cl)c3nc(C)nn3c2)cnc(C)c1Br (single isomer, unassigned) [Example 35a, 1-(5-bromo-4-(1-methoxyethyl)-6-methylpyridin-3-yl)-3-(8-chloro-2-methyl-[1,2,4]triazolo[1,5-a]pyridin-6-yl)urea] |  | 51 to 250 | 88 |
| COC(C)c1c(NC(=O)Nc2cc(Cl)c3nc(C)nn3c2)cnc(C)c1Br (single isomer, unassigned) [Example 35b, 1-(5-bromo-4-(1-methoxyethyl)-6-methylpyridin-3-yl)-3-(8-chloro-2-methyl-[1,2,4]triazolo[1,5-a]pyridin-6-yl)urea] |  | > 250 | 8 |
| CO[C@@H](C)c1c(NC(=O)Nc2cc(Cl)c3ncnn3c2)cnc2cc(Cl)nn12 [Example 2] | 97 | < 50 |  |
| CO[C@@H](C)c1c(NC(=O)Nc2cc(Br)c3ncnn3c2)cnc2cc(Cl)nn12 [Example 3] | 96 | < 50 |  |
| CO[C@@H](C)c1c(NC(=O)Nc2cc(C(F)(F)F)c3ncnn3c2)cnc2cc(Cl)nn12 [Example 4] | 94 | 51 to 250 |  |
| CO[C@@H](C)c1c(NC(=O)Nc2cc(Cl)c3nc(C4CC4)nn3c2)cnc2cc(Cl)nn12 [Example 6] | 97 | < 50 |  |
| CO[C@@H](C)c1c(NC(=O)Nc2cc(Cl)c3nc(C(C)C)nn3c2)cnc2cc(Cl)nn12 [Example 7] | 96 | < 50 |  |
| CO[C@@H](C)c1c(NC(=O)Nc2cc(Cl)c3nc(C(F)(F)F)nn3c2)cnc2cc(Cl)nn12 [Example 8] | 94 | < 50 |  |
| Cc1nc2c(F)cc(NC(=O)Nc3cnc4cc(Cl)nn4c3C3CCCO3)cn2n1 (centres unmarked) [Example 12] | 81 | 51 to 250 |  |
| Cc1nc2c(F)cc(NC(=O)Nc3cnc4cc(Cl)nn4c3C3CC3)cn2n1 [Example 15] | 79 | 51 to 250 |  |
| CO[C@@H](C)c1c(NC(=O)Nc2cc(C#N)c3ncnn3c2)cnc2cc(Cl)nn12 [Example 18] | 98 | < 50 |  |
| CO[C@@H](C)c1c(NC(=O)Nc2cn3nc(C)nc3c(Br)c2C)cnc2cc(Cl)nn12 [Example 19] | 17 | > 250 |  |
| CO[C@@H](C)c1c(NC(=O)Nc2ccc3nncn3c2)cnc2cc(Cl)nn12 [Example 20] | 16 | > 250 |  |
| Cc1nc2c(F)cc(NC(=O)Nc3cnc4cc(Cl)nn4c3C3(C(F)(F)F)CC3)cn2n1 [Example 23] | 98 | > 250 |  |
| CO[C@@H](C)c1c(NC(=O)Nc2cc(F)c3ncnn3c2)cnc2cc(C(F)(F)F)nn12 [Example 27] | 87 | 51 to 250 |  |

The next lines start with the values.

| inhibition at 1 µM [%] | IC50 [nM] | Percent Inhibition (@ 1 μM) [%] | SMILES |
| --- | --- | --- | --- |
| 100 | < 50 |  | COC(c1c(NC(=O)Nc2cc(F)c3nc(C)nn3c2)cnc2cc(Cl)nn12)C(C)C (racemic) [Example 31, 1-(2-chloro-7-(1-methoxy-2-methylpropyl)pyrazolo[1,5-a]pyrimidin-6-yl)-3-(8-fluoro-2-methyl-[1,2,4]triazolo[1,5-a]pyridin-6-yl)urea] |
| 100 | < 50 |  | COC(c1c(NC(=O)Nc2cc(F)c3nc(C)nn3c2)cnc2cc(Cl)nn12)C1CC1 (racemic) [Example 32, 1-(2-chloro-7-(cyclopropyl(methoxy)methyl)pyrazolo[1,5-a]pyrimidin-6-yl)-3-(8-fluoro-2-methyl-[1,2,4]triazolo[1,5-a]pyridin-6-yl)urea] |
| 98 | < 50 |  | CCC(OC)c1c(NC(=O)Nc2cc(F)c3nc(C)nn3c2)cnc2cc(Cl)nn12 (racemic) [Example 33, 1-(2-chloro-7-(1-methoxypropyl)pyrazolo[1,5-a]pyrimidin-6-yl)-3-(8-fluoro-2-methyl-[1,2,4]triazolo[1,5-a]pyridin-6-yl)urea] |
| 100 | < 50 |  | COC(c1c(NC(=O)Nc2cc(F)c3nc(C)nn3c2)cnc2cc(Cl)nn12)C(C)C (single isomer, unassigned) [Example 31a, 1-(2-chloro-7-(1-methoxy-2-methylpropyl)pyrazolo[1,5-a]pyrimidin-6-yl)-3-(8-fluoro-2-methyl-[1,2,4]triazolo[1,5-a]pyridin-6-yl)urea] |
|  | < 50 | 99 | COC(c1c(NC(=O)Nc2cc(F)c3nc(C)nn3c2)cnc2cc(Cl)nn12)C(C)C (single isomer, unassigned) [Example 31b, 1-(2-chloro-7-(1-methoxy-2-methylpropyl)pyrazolo[1,5-a]pyrimidin-6-yl)-3-(8-fluoro-2-methyl-[1,2,4]triazolo[1,5-a]pyridin-6-yl)urea] |
| 96 | 51 to 250 |  | COC(c1c(NC(=O)Nc2cc(F)c3nc(C)nn3c2)cnc2cc(Cl)nn12)C1CC1 (single isomer, unassigned) [Example 32a, 1-(2-chloro-7-(cyclopropyl(methoxy)methyl)pyrazolo[1,5-a]pyrimidin-6-yl)-3-(8-fluoro-2-methyl-[1,2,4]triazolo[1,5-a]pyridin-6-yl)urea] |
|  | < 50 | 99 | COC(c1c(NC(=O)Nc2cc(F)c3nc(C)nn3c2)cnc2cc(Cl)nn12)C1CC1 (single isomer, unassigned) [Example 32b, 1-(2-chloro-7-(cyclopropyl(methoxy)methyl)pyrazolo[1,5-a]pyrimidin-6-yl)-3-(8-fluoro-2-methyl-[1,2,4]triazolo[1,5-a]pyridin-6-yl)urea] |
| 99 | < 50 |  | CCC(OC)c1c(NC(=O)Nc2cc(F)c3nc(C)nn3c2)cnc2cc(Cl)nn12 (single isomer, unassigned) [Example 33a, 1-(2-chloro-7-(1-methoxypropyl)pyrazolo[1,5-a]pyrimidin-6-yl)-3-(8-fluoro-2-methyl-[1,2,4]triazolo[1,5-a]pyridin-6-yl)urea] |
|  | 51 to 250 | 96 | CCC(OC)c1c(NC(=O)Nc2cc(F)c3nc(C)nn3c2)cnc2cc(Cl)nn12 (single isomer, unassigned) [Example 33b, 1-(2-chloro-7-(1-methoxypropyl)pyrazolo[1,5-a]pyrimidin-6-yl)-3-(8-fluoro-2-methyl-[1,2,4]triazolo[1,5-a]pyridin-6-yl)urea] |
| 98 | < 50 |  | CO[C@@H](C)c1c(NC(=O)Nc2cc(Cl)c3nc(C)nn3c2)cnc2cc(Cl)nn12 [Example 5] |
| 92 | < 50 |  | CO[C@@H](C)c1c(NC(=O)Nc2cc(F)c3nc(C)nn3c2)cnc2cc(Cl)nn12 [Example 9] |
| 38 | > 250 |  | COc1cc(NC(=O)Nc2cnc3cc(Cl)nn3c2[C@H](C)OC)cn2nc(C)nc12 [Example 10] |
| 98 | < 50 |  | CO[C@@H](C)c1c(NC(=O)Nc2cc(C(F)(F)F)c3nc(C)nn3c2)cnc2cc(Cl)nn12 [Example 11] |
| 84 | 51 to 250 |  | CO[C@@H](C)c1c(NC(=O)Nc2cc(F)c3nc(CO)nn3c2)cnc2cc(Cl)nn12 [Example 13] |
| 99 | < 50 |  | CO[C@@H](C)c1c(NC(=O)Nc2cc(C#N)c3nc(C)nn3c2)cnc2cc(Cl)nn12 [Example 14] |
| 90 | < 50 |  | Cc1nc2c(F)cc(NC(=O)Nc3cnc4cc(Cl)nn4c3C(C)C)cn2n1 [Example 16] |
| 82 | < 50 |  | COCc1nc2c(F)cc(NC(=O)Nc3cnc4cc(Cl)nn4c3[C@H](C)OC)cn2n1 [Example 17] |
| 96 | > 250 |  | CO[C@@H](C)[C@@H](OC)c1c(NC(=O)Nc2cc(F)c3nc(C)nn3c2)cnc2cc(Cl)nn12 [Example 21] |
| 62 | > 250 |  | COCc1c(NC(=O)Nc2cc(F)c3nc(C)nn3c2)cnc2cc(Cl)nn12 [Example 22] |
| 80 | 51 to 250 |  | CO[C@@H](C)c1c(NC(=O)Nc2cc(F)c3nc(C)nn3c2)cnc2cc(F)nn12 [Example 24] |
| 95 | < 50 |  | CO[C@@H](C)c1c(NC(=O)Nc2cc(F)c3nc(C)nn3c2)cnc2cc(Br)nn12 [Example 25] |
| 71 | > 250 |  | CO[C@@H](C)c1c(NC(=O)Nc2cc(F)c3nc(C)nn3c2)cnc2cc(OC(F)F)nn12 [Example 26] |
